# Values of other authors as cited in US9096615B2, “Bridged bicyclic amino thiazine dioxide compounds as inhibitors of beta-secretase and methods of use thereof” (AMGEN INC., priority 2013, dated 2015).
# Legend:
# rat = settings: higher compound dose given for three months; cited from earlier work
# Aβ in lumbar CSF = settings: cited from earlier work
smiles,measurement,setting,value
"C[C@@]1(c2cc(-c3cncnc3)c(F)cc2F)CCSC(N)=N1 [LY2811376, (S)-4-(2,4-difluoro-5-pyrimidin-5-yl-phenyl)-4-methyl-5,6-dihydro-4H-[1,3]thiazin-2-ylamine]",rat toxicology finding in the eye,rat,damaged the pigment epithelium of the rat's eye
same,Aβ reductions in lumbar CSF,Aβ in lumbar CSF; after oral dosing of 30 or 90 mg,Prominent and long-lasting Aβ reductions
same,safety and tolerability,Aβ in lumbar CSF; healthy volunteers,safe and well tolerated
